# Data as given in patent publication US7579349B2, “4-(pyrazol-3-ylamino) pyrimidine derivatives for use in the treatment of cancer” (AstraZeneca AB, priority 2003, dated 2009).
# Test system: murine fibroblasts (NIH3T3) over-expressing human IGF-1 receptor
# Test: Inhibition of IGF-stimulated cell proliferation (BrdU incorporation), Test (c)
# Format: cell-based
# Conditions: inhibition of IGF-stimulated proliferation in NIH3T3 over-expressing human IGF-1 receptor
# Protocol: c) Inhibition of IGF-stimulated Cell Proliferation
# The construction of murine fibroblasts (NIH3T3) over-expressing human IGF-1 receptor has been described by Lammers et al (EMBO J, 8, 1369-1375, 1989). These cells show a proliferative response to IGF-I which can be measured by BrdU incorporation into newly synthesised DNA. Compound potency was determined as causing inhibition of the IGF-stimulated proliferation in the following assay:
# Compounds are initially dissolved in DMSO to 10 mM, followed by dilutions in DMEM+1% FCS+glutamine to give a range from […] in 1-0.00045% DMSO final concentration in assay well.
# Exponentially growing NIH3T3/IGFR cells were harvested and seeded in complete growth medium into a flat-bottomed 96 well tissue culture grade plate (Costar 3525) at 1.2×10^4 cells per well in a volume of 100 μl.
# Growth medium was carefully removed from each well using a multi-channel pipette. Wells were carefully rinsed three times with 200 μl with HBSS. 100 μl of starvation medium was added to each well and the plate was re-incubated for 24 hours.
# 50 μl of a 4× concentrate of test compound was added to appropriate wells. Cells were incubated for 30 minutes with compound alone before the addition of IGF. For cells treated with IGF, an appropriate volume (i.e. 25 μl) of starvation medium was added to make a final volume per well up to 200 μl followed by 25 μl of IGF-1 at 160 ng/ml (to give a final concentration of 20 ng/ml). […] The plate was re-incubated for 20 hours.
# The incorporation of BrdU in the cells (after a 4 h incorporation period) was assessed using the BrdU Cell Proliferation Elisa according to the manufacturer's protocol.
Structure (SMILES),IC50 [µM],IC50 (Mus musculus) [µM]
"Clc1cnc(N2CCCC2c2cc(C3CC3)no2)nc1Nc1cc(C2CC2)[nH]n1 (stereo not shown) [Example 5, 5-Chloro-2-[2-(3-cyclopropylisoxazol-5-yl]pyrrolidin-1-yl]-4-(5-cvlopropyl-1H-pyrazol-3-ylamino)phyrimidine]",0.13,–
"Cc1cc(Nc2ccnc(N3CCCC3c3cc(-c4ccccn4)no3)n2)n[nH]1 (stereo not shown) [Example 23, 4-(5-Methyl-1H-pyrazol-3-ylamino)-2-{2-[3-(pyrid-2-yl)isoxazol-5-yl]pyrrolidin-1-yl}pyrimidine]",–,0.11
"Cc1cc(Nc2cc(C(F)(F)F)nc(N3CCCC3c3cc(-c4ccccn4)no3)n2)n[nH]1 (stereo not shown) [Example 35, 4-(5-Methyl-1H-pyrazol-3-ylamino)-2-{2-[3-(pyrid-2-yl)isoxazol-5-yl]pyrrolidin-1-yl}-6-trifluoromethylpyrimidine]",–,0.56
"Cc1cc(Nc2nc(N3CCC[C@H]3c3cc(-c4nccs4)no3)ncc2Cl)n[nH]1 [Example 38, S-5-Chloro-2-{2-[3-(thiazol-2-yl)isoxazol-5-yl]pyrrolidin-1-yl}-4-(5-methyl-1H-pyrazol-3-ylamino)pyrimidine]",0.054,–
